This is an account of results in patent US9549928B2, “Muscarinic agonists as enhancers of cognitive flexibility” (THE UNIVERSITY OF TOLEDO, priority 2011, dated 2017).

Format in all cases: in vivo, rat
The test system of data set [1] is male Long-Evans rats. Nature of the data set: Delayed spontaneous alternation in a 4-arm cross maze (30 second delay). To be noted: i.p. The procedure:
For behavioral studies, male Long-Evans rats were purchased from Harlan (Indianapolis, Ind.) weighing between 325-375 g. Rats were individually housed in plastic cages (20.3 cm×20.3 cm×41.9 cm) in an environmentally controlled room (23° C., 30% humidity) on a 12 h:12 h light:dark cycle (lights on at 7:00 am). After at least four days to acclimate to the colony room, rats were handled for 10 minutes per day for four days to adjust to being handled during training and testing. At the same time rats began to be handled, rats were also food restricted to reduce their weight to 85-90% of their ad libitum weight. Rats had free access to water throughout the experiment. Animal care and use conformed to the guidelines of the National Institutes of Health Guide for the Care and Use of Laboratory Animals, and was approved by the Institutional Laboratory Animal Care and Use Committee at the University of Illinois at Chicago.
All behavioral testing occurred in a cross maze made of translucent black acrylic. Each arm measured 55 cm long, 10 cm wide, and 15 cm in height. A circular food well, with a diameter of 3.2 cm and a depth of 1.6 cm was placed 3 cm from the end of each arm. […]
In this test, rats were placed in the testing room 5 minutes prior to behavioral testing. […] The number and sequence of arm entries was recorded. An arm entry was recorded when all four paws entered an arm. […]

Data set [2] relates to male Long-Evans rats. Nature of the data set: Place discrimination acquisition and switch to visual cue discrimination (strategy switching). To be noted: i.p. On the procedure: A different group of rats was used for the discrimination learning and strategy switching tests from that used in the delayed spontaneous alternation test. Prior to testing, rats were food-restricted to maintain their weight at 85% of their free-feed weight, handled and trained in the maze to obtain half piece of Froot Loops® cereal in the cross-maze.
Following training, each rat was tested across two consecutive days. In the first experiment each rat had to learn a place discrimination. Rats were started in a pseudorandom manner from one of two different arms such that any start arm was not used more than 3 consecutive trials. The two start arms (“east” and “west”) were always opposite each other. A black plastic block was placed in the entrance of the maze arm opposite to that of the start arm, giving the maze a T-shape. Thus, the same two choice arms were used no matter what start arm was used. A rat was started in the stem arm with only one of the two choice arms baited. In the acquisition phase, one choice arm or place was designated the reinforced arm which contained a ½ piece of cereal reinforcement on each trial. In this phase, a rat was required to enter the reinforced arm containing a ½ piece of cereal. […]
In the switch phase of each experiment, the errors committed were separated into different categories and analyzed. […]

Data set [3] deals with normal rats. Nature of the data set: Example 2: attentional set-shifting model, place strategy shifted to visual cue strategy. To be noted: injection before acquisition (FIG. 7A). An excerpt:
The beneficial effects of CDD-0102A in the rat model of cognitive flexibility are among the strongest evidence providing the scientific rationale for CDD-0102A in the treatment of PSP. The inventors have developed several models of cognitive flexibility, including the model of attentional set shifting involving an extradimensional set shift described here. The model involves a place-visual cue task. Rats first learned to use a place strategy—always to enter the same arm to receive a food reward. Criterion was set at 10 consecutive correct trials. The following day, rats had to inhibit the place strategy and to learn a new visual cue strategy to receive the reward. Local visual cues in the maze arms included a black board in one arm and white board in the other arm. The cues were switched between the choice arms randomly across trials so the same cue was not always in the same location. The rat had to choose the arm that contained a particular color cue (e.g., black) in order to receive the reward. The criterion again was set at 10 consecutive correct trials.
Rats received either saline (N=3) or CDD-0102A at various doses 30 minutes prior to testing.

Data set [4] deals with male Long-Evans rats. Nature of the data set: Visual cue discrimination acquisition and switch to place discrimination (strategy switching). As to conditions: 0.003 mg/kg i.p. before switch phase; vs controls. The procedure: In a separate experiment, the effect of CDD-0102A on initial learning of a visual cue strategy and switch to a place strategy was determined. All other aspects of the testing procedure were as described above. The treatment groups in this experiment were as follows: 1) saline—saline (n=8); 2) saline—CDD-0102A 0.003 mg/kg (n=7); 3) saline—CDD-0102A 0.03 mg/kg (n=7); 4) vehicle—CDD-0102A 0.1 mg/kg (n=8); 5) CDD-0102A 0.03 mg/kg-saline (n=7); or 6) CDD-0102A 0.01 mg/kg-saline (n=8).
These same types of errors were calculated in a similar manner for the experiment in which rats first learned a visual cue strategy and then switched to a place strategy.
In the spontaneous alternation task, a one-way analysis of variance was used to identify differences in percent alternation scores and number of arm entries across groups. Newman-Keuls post-hoc tests were used to compare treatment and control group measures. In the discrimination learning tests, one-way analyses of variance were used to identify differences in trials to criterion for acquisition and strategy switching. Separate analyses of variance were carried out to determine group differences in perseverative, regressive, and never-reinforced errors. Newman-Keuls post-hoc tests were used to compare differences between treatment groups.

In data set [5] the test system is male Long-Evans rats. Nature of the data set: Salivation studies, salivary output over 60 minutes after i.p. administration. On the procedure: For studies of salivation, male Long-Evans rats were purchased from Charles River Laboratories (Wilmington, Mass.) weighing between 250-425 g. Animals were kept in a vivarium on a 12-h light/dark cycle. Humidity was maintained at 30-70%, and temperature was maintained at 20-24° C. All procedures were approved by the Institutional Animal Care and Use Committee at Mithridion, Inc.
Salivation was quantified in rats following i.p. administration of CDD-0102A. Rats were first anesthetized with isoflurane, and then dosed with CDD-0102 by i.p. injection. Anesthesia was maintained by a nose cone that delivered 1.5-2.5% isoflurane in 500 ml/minute of oxygen. CDD-0102A was dissolved in phosphate-buffered saline and the injection volume was 2 ml/kg. The hind limbs of anesthetized animals were taped to the top of an incline (25° grade) so that the animal was oriented with its head near the bottom of the slope and its dorsal-surface oriented upward. Body temperature was monitored by a rectal thermometer, and maintained at 36-38° C. by a heating pad. The animal's nose was inserted into a nose cone for maintaining anesthesia while the entire mouth remained outside this nose cone. Pre-weighed filter paper (approximately 5×5 cm) was placed underneath the mouth to absorb the draining saliva. After 5 minutes, the saliva-wetted filter paper was weighed and replaced with fresh, pre-weighed filter paper. Total salivary output was calculated by subtracting the mass of the filter paper from the combined mass of paper plus saliva as collected over 60 minutes.

Data set [6] deals with normal rats. Nature of the data set: Example 2: attentional set-shifting model, visual cue strategy shifted to place strategy. To be noted: injection before acquisition (FIG. 8A). From the text: The whole experiment was repeated with the rats learning first a visual cue strategy and then being switched to a place strategy.

For `CCc1noc(C2CN=CNC2)n1` (stereo not shown) [CDD-0102A, 5-(3-ethyl-1,2,4-oxadiazol-5-yl)-1,4,5,6-tetrahydropyrimidine], the “dose at which significant improvement in memory function was observed” value in the data set with male Long-Evans rats [1] is on record as no less than 0.1 mg/kg. Also, the “dose at which effect on strategy switching is maximal” value in the data set on male Long-Evans rats [2] was found to be 0.03 mg/kg. Further, the “acquisition of the place-cue strategy” value in the data set on normal rats [3] is on record as “no effect”. Moreover, the “trials to criterion, switch to place strategy” value in the data set on male Long-Evans rats [4] was “no significant effect”. Further, the “salivary output over 60 minutes” value in the data set with male Long-Evans rats [5] (0.1 mg/kg i.p.) was “no salivation”; with male Long-Evans rats [5] (5 mg/kg i.p. (most salivation), mean ± SEM), 4,685±449 μl; in the data set on male Long-Evans rats [5] (10 mg/kg i.p., compared with 5 mg/kg dose, P>0.5) it was “not significantly different”. Further, in the data set with male Long-Evans rats [5] (efficacious dose lower than dose producing half-maximum salivation), the “separation between dose enhancing place-visual cue task (0.03 mg/kg ip) and dose producing half-maximum salivation” value is on record as “approximately 100 fold”. For the same compound, the “lowest dose that produced salivation” value with male Long-Evans rats [5] (i.p.) stood at 0.3 mg/kg. In the data set with normal rats [6], the “acquisition of the visual-cue strategy” value was “no effect”.
